According to patent US9434733B2, “PDE9 inhibitors with imidazo triazinone backbone” (H. Lundbeck A/S, priority 2012, dated 2016):

Target: PDE9 (Homo sapiens (Human), UniProt O76083)
Assay: PDE9 inhibition assay
Format: biochemical
Conditions: 10 nM 3H-cAMP, 1 hour incubation, yttrium silicate SPA beads; read-out: PDE9_IC50
Description: Reactions are initiated by addition of the cyclic nucleotide substrate, and reactions are allowed to proceed for one hr at room temperature before being terminated through mixing with 15 uL 8 mg/mL yttrium silicate SPA beads (Amersham).
Following a 1 hour incubation the reactions were terminated by addition of 15 uL 8 mg/mL yttrium silicate SPA beads (Amersham). […] IC50 values were calculated by non linear regression using XLfit (IDBS).

Chain of PDE9 (O76083 whole entry): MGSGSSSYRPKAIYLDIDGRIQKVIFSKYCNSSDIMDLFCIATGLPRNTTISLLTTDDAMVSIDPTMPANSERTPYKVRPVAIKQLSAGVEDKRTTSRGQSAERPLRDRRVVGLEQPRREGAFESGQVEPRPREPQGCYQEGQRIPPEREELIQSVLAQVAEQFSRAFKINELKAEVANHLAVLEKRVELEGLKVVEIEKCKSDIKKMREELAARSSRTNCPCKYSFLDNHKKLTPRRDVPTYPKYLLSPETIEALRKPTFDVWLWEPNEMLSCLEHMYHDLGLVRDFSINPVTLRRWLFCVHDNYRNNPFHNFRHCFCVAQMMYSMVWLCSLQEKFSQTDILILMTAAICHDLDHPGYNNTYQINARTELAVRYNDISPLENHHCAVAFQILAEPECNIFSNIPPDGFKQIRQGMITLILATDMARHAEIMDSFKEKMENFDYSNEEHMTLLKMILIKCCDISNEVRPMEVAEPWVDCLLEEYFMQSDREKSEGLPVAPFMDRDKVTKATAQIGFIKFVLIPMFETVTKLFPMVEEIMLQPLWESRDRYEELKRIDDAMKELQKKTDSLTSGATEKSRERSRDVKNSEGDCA

SMILES: O=c1[nH]c(CN2CC(Oc3cccnc3)C2)nn2c(C3CCOCC3)ncc12 [2-[[3-(3-pyridyloxy)azetidin-1-yl]methyl]-7-tetrahydropyran-4-yl-3H-imidazo[5,1-f][1,2,4]triazin-4-one]
- IC50: 350 nM
